Data set [1] in a line: Plasma stability, mouse plasma. In kind it is in vitro ADME. The note with it: mouse plasma, 37° C. As to the method: (§1) Animal or human whole blood was collected, then the blood was put into a test tube containing anticoagulant, centrifuged at 3500 rpm for 10 min, and the upper layer of pale yellow plasma was collected. • 2) 10 μM of tested compound (m/M/V=C)
(§2) The compound was weighed, the stock solution was prepared with DMSO and the working solution was prepared with 100 mM phosphate buffer. • 3) 10 μM of positive control • (1) Propantheline (Propantheline Mr=449.4 Da)
(§3) • 1) 285 μL of plasma and 15 μL of 10 μM compound (tested compound) were added in turn in a 96-well plate, and incubated at 37° C. • 2) 40 μL was taken out at 0, 15, 30, 60, 90, 120 min, respectively, and 160 μL of acetonitrile termination solution containing internal standard was added. • 3) After centrifugation (3500 rpm, 10 min), 50 μL of supernatant was taken out, and then diluted with 50 μL DDH2O and injected to LC-MS/MS.
(§4) • instrument: Shimadzu LC-20 AD • chromatographic column: phenomenex Gemiu® C18 (50*4.6 mm, 5 μM particle size); • mobile phase: A: acetonitrile, B: 0.1% formic acid solution 0-8 min: 5% A→95% A, 2.0-2.1 min: 90% A→5% A; flow rate: 0.8 mL/min; running time: 5.0 min; injection volume: 5 μL.
(§5) • instrument: API4000 Liquid Chromatography-Mass Spectrometry, AB, USA; • the ion source was electrospray ionization source (ESI); • the temperature of dry gas (N2) was 500° C.; • electrospray voltage was 5500V; • the detection method was positive ion detection; • the scanning mode was selective response monitoring (MRM); • the scanning time was 0.1 s.

A short description of data set [2]: Plasma stability, human plasma. To be noted: human, 0.5 μM. The format is in vitro ADME. On the procedure:
as §1, §2, §3, §4, §5

In another data set the target is T1, hERG potassium channel (Homo sapiens, UniProt Q12809).
T1 construct: expressed in transfected cells; host or cells: CHO-hERG cells
T1 sequence (Q12809 whole entry): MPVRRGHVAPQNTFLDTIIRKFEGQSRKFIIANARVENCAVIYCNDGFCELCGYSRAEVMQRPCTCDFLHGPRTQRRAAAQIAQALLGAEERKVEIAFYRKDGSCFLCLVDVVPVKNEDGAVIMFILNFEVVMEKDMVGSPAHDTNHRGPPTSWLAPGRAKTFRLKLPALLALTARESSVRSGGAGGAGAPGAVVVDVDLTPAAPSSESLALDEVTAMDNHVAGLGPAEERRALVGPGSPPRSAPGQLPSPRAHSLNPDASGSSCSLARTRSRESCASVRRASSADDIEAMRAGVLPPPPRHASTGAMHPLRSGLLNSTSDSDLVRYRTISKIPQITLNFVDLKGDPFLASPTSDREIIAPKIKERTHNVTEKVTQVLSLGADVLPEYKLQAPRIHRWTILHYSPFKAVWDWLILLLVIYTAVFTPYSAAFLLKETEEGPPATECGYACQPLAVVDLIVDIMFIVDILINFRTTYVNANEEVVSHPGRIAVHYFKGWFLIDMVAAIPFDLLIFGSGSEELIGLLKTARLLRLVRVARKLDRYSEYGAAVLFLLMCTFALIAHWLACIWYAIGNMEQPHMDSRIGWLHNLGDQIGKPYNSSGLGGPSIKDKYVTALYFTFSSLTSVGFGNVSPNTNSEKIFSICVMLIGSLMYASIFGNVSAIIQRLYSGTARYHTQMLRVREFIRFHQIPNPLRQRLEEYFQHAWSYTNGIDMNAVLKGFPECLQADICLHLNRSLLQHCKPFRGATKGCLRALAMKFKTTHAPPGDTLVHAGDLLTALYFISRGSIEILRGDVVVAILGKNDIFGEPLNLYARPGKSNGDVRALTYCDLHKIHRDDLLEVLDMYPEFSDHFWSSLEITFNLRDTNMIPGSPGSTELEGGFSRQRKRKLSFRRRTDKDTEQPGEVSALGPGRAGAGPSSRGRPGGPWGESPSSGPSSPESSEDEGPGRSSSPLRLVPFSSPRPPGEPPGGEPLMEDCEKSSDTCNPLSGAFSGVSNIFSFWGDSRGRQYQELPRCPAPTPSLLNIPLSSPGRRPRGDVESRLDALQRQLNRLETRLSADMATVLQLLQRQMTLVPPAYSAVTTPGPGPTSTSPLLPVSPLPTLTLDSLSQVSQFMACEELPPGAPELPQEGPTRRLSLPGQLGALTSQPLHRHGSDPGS
The data set can be described thus: hERG potassium channel inhibitory activity test (Qpatch, CHO-hERG cells). The format is cell-based. To be noted: highest test concentration 40 μM, read-out: hERG (μM), inhibition at multiple concentrations on hERG current. As to the method: 7.1.1 CHO-hERG cells were cultured in a 175 cm^2 flask, when the cell density reached 60-80%, the culture medium was removed, the cells were washed with 7 mL PBS, and then digested with 3 mL Detachin. 7.1.2 After complete digestion, 7 mL culture medium was added to neutralize, then the mixture was centrifuged, the supernatant was aspirated, and then 5 mL culture medium was added to re-suspend, ensuring 2-5×10^6/mL of cell density.
The process of single cell high impedance sealing and whole cell mode formation were all automatically completed by Qpatch instrument, after obtaining the whole cell recording mode, the cells were clamped at −80 mV, before giving a 5-second +40 mV depolarization stimulus, a 50 millisecond −50 mV prevoltage was given first, and then repolarized to −50 mV for 5 seconds, then returned to −80 mV. This voltage stimulation was applied every 15 seconds and recorded for 2 minutes before giving extracellular fluid recordings for 5 minutes, and then the administration process was started, the compound concentration was given from the lowest test concentration, each test concentration was given for 2.5 minutes, and the positive control compound 3 μM of Cisapride was given after all concentrations were continuously given. At least 3 cells (n≥3) were tested at each concentration.
7.4.1 20 mM of compound mother liquor was diluted with extracellular fluid, 5 μL of 20 mM compound mother liquor was added into 2495 μL of extracellular fluid and diluted 500-fold to 40 μM, and then the final concentration to be tested was obtained by sequential 3-fold serial dilutions in extracellular solution containing 0.2% DMSO. 7.4.2 The highest test concentration was 40 μM, in a total of 6 concentrations of 40, 13.33, 4.44, 1.48, 0.49 and 0.16 μM respectively. 7.4.3 The content of DMSO in the final test concentration was not more than 0.2%, and this concentration of DMSO had no effect on hERG potassium channel.
The experimental data were analyzed by XLFit software. […]
Background: hERG is a cardiac potassium channel; its block is linked to QT prolongation.

Data set [3] can be described thus: Plasma stability, dog plasma. In kind it is in vitro ADME. To be noted: dog plasma, 37° C. On the procedure:
as §1, §2, §3, §4, §5

A short description of data set [4]: Plasma stability, rat plasma. The format is in vitro ADME. The note with it: rat plasma, 37° C. As to the method:
as §1, §2, §3, §4, §5

With `C=CC(=O)N1C[C@H](C)N(c2nc(=O)n(-c3c(SC)ccnc3C(C)C)c3nc(-c4c(O)cccc4F)c(Cl)cc23)C[C@H]1C` (atropisomer, axis not shown) [Embodiment 14-1, P-4-((2S,5R)-4-Acryloyl-2,5-dimethylpiperazin-1-yl)-6-chloro-7-(2-fluoro-6-hydroxyphenyl)-1-(2-isopropyl-4-(methylthio)pyridin-3-yl)pyrido[2,3-d]pyrimidin-2(1H)-one], the “Residual rate (%) 0 min” value in data set [1] (0 min), in data set [2] (0 min), in data set [3] (0 min) and in data set [4] (0 min) was 100.00% each time. The “Residual rate (%) 15 min” value in data set [1] (15 min) came to 105.42%; in data set [2] (15 min) it was 99.15%; in data set [3] (15 min) it was 99.98%; in data set [4] (15 min), 93.20%. The “Residual rate (%) 30 min” value is reported as 100.02% in data set [1] (30 min), 94.74% in data set [2] (30 min), 98.79% in data set [3] (30 min) and 98.32% in data set [4] (30 min). Also, the “Residual rate (%) 60 min” value in data set [1] (60 min) amounted to 99.12%; in data set [2] (60 min) it was 89.14%; in data set [3] (60 min), 93.69%; in data set [4] (60 min), 99.08%. The “Residual rate (%) 120 min” value is 85.55% in data set [1] (120 min), 78.85% in data set [2] (120 min), 86.16% in data set [3] (120 min) and 96.46% in data set [4] (120 min). Besides, on hERG potassium channel, the IC50 is over 30 µM.

For the origin of these results see patent publication US20240325394A1, “SALT AND CRYSTAL FORM OF NITROGEN-CONTAINING HETEROCYCLIC DERIVATIVE, PREPARATION METHOD THEREFOR AND APPLICATION THEREOF” (SHANGHAI HANSOH BIOMEDICAL CO., LTD., priority 2020, published 2024).
